In brackets after ≈: the same amount, converted by molar mass. Where two headings read alike, the source gives them in different places.
Test system: Spodoptera littoralis larvae (2nd and 4th instar)
Assay: Insecticidal bioassay screening (castor leaf dip)
Format: in vivo
Conditions: for LC50 (ppm) at 95% / LC90 (ppm) at 95%: after 72 h of treatment; for LC50: foliar; for Toxicity index %: Diflubenzuron LC50 / compound LC50 x 100
Method: In this experiment, castor leaves are immersed in each of the previously prepared concentrations of the components for 10 seconds and then left to dry for 60 minutes. Larvae of the second and fourth instars of each checked strain are prepared with treated leaves in gauze-covered glass containers for 72 hrs. An untreated control is made in which leaves are dipped in triton x-100 and distilled water only. Then the preserved leaves were removed & fresh, untreated leaves were provided for 72 hours. Three replicates (10 larvae each) were checked for each concentration. Daily inspection was carried out for all treatments and mortality percentages were recorded 3 days (72 hours) after treatment. The average mortality percentage was corrected employing Abbott's formula. The corrected mortality rate for each of the previously synthesized compounds is statistically calculated according to Finney (1970). Through this rate, the corresponding concentration test lines (LDP lines) are assessed. Fifty and ninety percent mortality are determined, and the regression values for the checked products were previously evaluated.

[1] = 2nd instar larvae of S. littoralis
[2] = 4th instar larvae of S. littoralis

Q: `CCOC(=O)CS/C(=N\c1cccc(Cl)c1)NC(=O)c1ccc(Cl)cc1Cl` [Compound 2, Ethyl {[N′-(3-chlorophenyl)-N-(2,4-dichlorobenzoyl)carbamimidoyl]sulfanyl}acetate] was tested. Which “LC50 (ppm) at 95%” value [1] did it give?
A: about 211.4 ppm

Q: And the “LC50 (ppm) at 95%” value [2]?
A: about 472.3 ppm

Q: What about the “effect on larval morphology (FIGS. 1A-1B)” value (S. littoralis larvae versus normal larvae (control)) of the same compound?
A: Morphological malformations

Q: What about the “activity against Spodoptera littoralis (in words)” value (compared with reference insecticide Diflubenzuron) of the same compound?
A: active against Spodoptera littoralis

Q: What about the LC50 (against Spodoptera littoralis under laboratory conditions (instar not given), read-out: LC50) of the same compound?
A: 211 µg/mL

Q: `O=C(NC(=S)Nc1cccc(Cl)c1)c1ccc(Cl)cc1Cl` [Compound 1, 2,4-dichloro-N-[(3-chlorophenyl)carbamothioyl]benzamide] was tested. Which “LC50 (ppm) at 95%” value [1] did it give?
A: 211.4 ppm

Q: What about the “LC90 (ppm) at 95%” value [1] of the same compound?
A: 1913.2 ppm

Q: And the Toxicity index % (2nd instar larvae)?
A: 21.1%

Q: And the “LC50 (ppm) at 95%” value [2]?
A: 472.3 ppm

Q: And the “LC90 (ppm) at 95%” value [2]?
A: 4322.7 ppm

Q: What about the Toxicity index % (4th instar larvae) of the same compound?
A: 30.5%

Q: What does the source list for `O=C(NC(=O)c1c(F)cccc1F)Nc1ccc(Cl)cc1` [Diflubenzuron, reference compound]?
A: LC50 (ppm) at 95% [1]: 45.20 ppm; LC90 (ppm) at 95% [1]: 520.0 ppm; Toxicity index % (2nd instar larvae): 100%; LC50 (ppm) at 95% [2]: 144.05 ppm; LC90 (ppm) at 95% [2]: 1540.5 ppm; Toxicity index % (4th instar larvae): 100%; LC50 (Spodoptera littoralis): 45.2 µg/mL (≈ 145 µM)
